Results published in patent US20030003508A1 (priority 1999, published 2003).

System: R. pulicis
Type: cell-based, Rickettsia pulicis

CC[C@H]1OC(=O)[C@H](C)[C@@H](O[C@H]2C[C@@](C)(OC)[C@@H](O)[C@H](C)O2)[C@H](C)[C@@H](O[C@@H]2O[C@H](C)C[C@H](N(C)C)[C@H]2O)[C@](C)(O)C[C@@H](C)C(=O)[C@H](C)[C@@H](O)[C@]1(C)O [Erythromycin]
resistance/sensitivity of the isolate to the antibiotic: resistant
